Source: patent publication US20120142656A1, “BUCCAL APPLICATION SYSTEM COMPRISING 17A-ESTRADIOL” (BAYER PHARMA AKTIENGESELLSCHAFT, priority 2009, published 2012)

Legend:
Assay type in all cases: in vivo
[1] = system: postmenopausal or ovarectomized women; assay: tolerability: monitoring of undesired events and laboratory investigations in clinical study; conditions: 0.4 mg buccal tablet, versus placebo group
Protocol: Hot flashes were recorded before the beginning of treatment and on one of the last 3 days of treatment week 4. This was carried out according to subjective criteria (number and severity of the events) using patient diaries and objectively by continuous measurement of the skin temperature. Moreover, the tolerability of the treatment regime was determined by monitoring of undesired events and standardized laboratory investigations.

[2] = system: postmenopausal or ovarectomized women; assay: endometrial thickness by transvaginal ultrasound in clinical study; conditions: 0.4 mg buccal tablet
Protocol: Hot flashes were recorded before the beginning of treatment and on one of the last 3 days of treatment week 4. This was carried out according to subjective criteria (number and severity of the events) using patient diaries and objectively by continuous measurement of the skin temperature. In addition, the measurement of the endometrial thickness was carried out by transvaginal ultrasound investigations.

[3] = system: postmenopausal or ovarectomized women; assay: double-blind, randomized crossover clinical study: hot flashes (patient diaries, skin temperature); conditions: 0.4 mg buccal tablet
Protocol: Hot flashes were recorded before the beginning of treatment and on one of the last 3 days of treatment week 4. This was carried out according to subjective criteria (number and severity of the events) using patient diaries and objectively by continuous measurement of the skin temperature.

endometrial thickness measured by transvaginal ultrasound [2]: not significantly altered
Structure (SMILES): C[C@]12CC[C@@H]3c4ccc(O)cc4CC[C@H]3[C@@H]1CC[C@H]2O [17α-estradiol]
side-effect profile [1]: comparable
number of hot flashes per 24 h ([3]; after treatment for 4 weeks, before treatment 11.9±2.1, patient diaries): 3.1±1.8 per 24 h
effect on number and intensity of hot flashes ([3]; drug group versus placebo): rapid reduction of the number and intensity of hot flashes
